Several values for one entry are separate records, joined by “and”; a condition that tells them apart may be missing. Identical values can stand only once. Like-named read-outs stand apart in the source and are kept apart here. One block for each compound: values may come before it.
Legend:
CDK12–cyclin K and DDB1 = molecular target: T1, CDK12–cyclin K and DDB1 (Homo sapiens, UniProt Q16531+Q9NYV4, K965R); assay: TR-FRET ternary complex formation assay (compound titration); format: binding; details: for TR-FRET signal at compound concentration: replicate titrations
T1 construct: His6–CDK12 (a.a. 713–1,052); full-length or beta-propeller B domain deletion (ΔBPB: a.a. 396–705 deleted) constructs of His6–DDB1ΔBPB, StrepII–Avi–DDB1, or His6–Spy–DDB1; made in house; host or cells: Trichoplusia ni High Five insect cells (baculovirus)
T1 sequence (Q9NYV4 713-1052 K965R): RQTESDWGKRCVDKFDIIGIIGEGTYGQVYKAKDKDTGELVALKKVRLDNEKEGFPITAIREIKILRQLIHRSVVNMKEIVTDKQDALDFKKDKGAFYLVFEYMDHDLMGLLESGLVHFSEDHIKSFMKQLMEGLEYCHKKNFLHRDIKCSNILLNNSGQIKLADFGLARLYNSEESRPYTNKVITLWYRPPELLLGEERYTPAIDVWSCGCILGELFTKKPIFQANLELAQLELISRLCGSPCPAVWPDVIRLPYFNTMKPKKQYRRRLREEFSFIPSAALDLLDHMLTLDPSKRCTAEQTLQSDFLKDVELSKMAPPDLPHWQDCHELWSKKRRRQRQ
T1 sequence (O75909 1-267 partner): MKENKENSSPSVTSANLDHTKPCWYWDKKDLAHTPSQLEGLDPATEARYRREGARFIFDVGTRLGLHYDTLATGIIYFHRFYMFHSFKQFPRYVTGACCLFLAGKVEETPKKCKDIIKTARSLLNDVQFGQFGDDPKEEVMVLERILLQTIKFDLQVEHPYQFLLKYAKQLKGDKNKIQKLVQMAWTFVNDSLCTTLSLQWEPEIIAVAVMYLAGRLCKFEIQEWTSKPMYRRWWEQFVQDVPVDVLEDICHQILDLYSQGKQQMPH
T1 sequence (Q16531 whole entry): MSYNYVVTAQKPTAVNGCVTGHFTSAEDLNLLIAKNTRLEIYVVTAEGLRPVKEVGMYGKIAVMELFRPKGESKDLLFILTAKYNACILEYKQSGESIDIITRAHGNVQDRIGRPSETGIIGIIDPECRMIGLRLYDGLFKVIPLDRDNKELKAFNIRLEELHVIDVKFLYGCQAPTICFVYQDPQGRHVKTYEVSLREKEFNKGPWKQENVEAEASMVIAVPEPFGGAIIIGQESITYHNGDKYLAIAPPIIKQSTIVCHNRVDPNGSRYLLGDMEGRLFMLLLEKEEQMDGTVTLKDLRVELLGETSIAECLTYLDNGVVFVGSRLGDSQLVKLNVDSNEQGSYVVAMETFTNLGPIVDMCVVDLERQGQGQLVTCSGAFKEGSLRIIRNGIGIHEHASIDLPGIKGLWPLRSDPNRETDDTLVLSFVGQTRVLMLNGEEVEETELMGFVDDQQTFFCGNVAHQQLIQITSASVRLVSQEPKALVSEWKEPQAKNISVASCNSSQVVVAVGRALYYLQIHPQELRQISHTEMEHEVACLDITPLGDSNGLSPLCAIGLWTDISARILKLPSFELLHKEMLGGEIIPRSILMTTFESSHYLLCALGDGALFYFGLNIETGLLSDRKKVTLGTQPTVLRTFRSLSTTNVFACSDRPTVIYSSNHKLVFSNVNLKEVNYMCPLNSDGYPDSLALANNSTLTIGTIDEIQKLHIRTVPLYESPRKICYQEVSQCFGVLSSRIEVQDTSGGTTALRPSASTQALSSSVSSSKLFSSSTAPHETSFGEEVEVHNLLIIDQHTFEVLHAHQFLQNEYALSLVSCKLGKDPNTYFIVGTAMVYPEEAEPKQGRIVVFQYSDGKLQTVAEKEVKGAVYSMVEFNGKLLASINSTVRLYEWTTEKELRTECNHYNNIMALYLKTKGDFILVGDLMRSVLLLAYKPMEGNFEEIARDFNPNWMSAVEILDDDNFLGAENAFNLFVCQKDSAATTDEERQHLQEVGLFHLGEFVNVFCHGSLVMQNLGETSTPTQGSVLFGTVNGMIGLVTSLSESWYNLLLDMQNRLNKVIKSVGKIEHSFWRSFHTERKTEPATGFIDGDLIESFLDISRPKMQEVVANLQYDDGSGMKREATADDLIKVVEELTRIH
Summary of the method: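 TR-FRET ratio 520/490 nm; 70 μs delay before read to suppress background.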

[1] = system: cyclin K–eGFP degradation reporter; assay: Cyclin K reporter stability analysis (dual-color cyclin K–eGFP reporter); format: cell-based, human
Summary of the method: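 Cells (HEK293T–Cas9, reporter-expressing) at 1 × 10^6 ml^−1; 5 h compound or DMSO; flow cytometry; gMFI eGFP ÷ mCherry on round mCherry-positive events; normalized to 3 DMSO controls.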

HEK293T cells = assay: Drug sensitivity assay (CellTiter-Glo viability) with or without MLN4924 pretreatment; format: cell-based, human; details: for EC50: Homo sapiens, HEK-293T; for Toxicity rescue: MLN4924-mediated cytotoxicity rescue, 10 µM used where n.d.
Summary of the method: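 Luminescent ATP read-out (CellTiter-Glo) after 3 days of drug exposure, normalised to DMSO controls. Cells were HEK293T–Cas9, pretreated with 100 nM MLN4924 or DMSO for 2 h before drug dispensing.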

[2] = Supplementary Table 2, read-out: TR-FRET EC50 TR-FRET
[3] = in vitro complex formation, 50 nM CDK12–cyclin K, 100 nM DDB1, text and figures, read-out: TR-FRET EC50
[4] = sheet MOESM7, read-out: log TR-FRET EC50 (converted)
[5] = Supplementary Table 2, HEK293T cycK-eGFP reporter, 5 h, read-out: Cellular assays DC50
[6] = Supplementary Table 2, HEK293T viability, 72 h, compound alone, read-out: Cellular assays EC50
[7] = compound concentration 79.2001 nM
[8] = compound concentration 158.4 nM
[9] = compound concentration 309.6 nM
[10] = compound concentration 626.401 nM
[11] = compound concentration 1252.8 nM
[12] = compound concentration 9936.01 nM
[13] = compound concentration 20016 nM

EC50 (CDK12–cyclin K and DDB1; [2]): 704 nM | TR-FRET signal at compound concentration 4.68 nM (CDK12–cyclin K and DDB1; compound concentration 4.68 nM, raw replicate titration data): 0.2134 and 0.2299 and 0.1361 and 0.1347 | TR-FRET signal at compound concentration 21.6 nM (CDK12–cyclin K and DDB1; compound concentration 21.6 nM, raw replicate titration data): 0.2243 and 0.2471 and 0.1497 and 0.153 | TR-FRET signal at compound concentration 36 nM (CDK12–cyclin K and DDB1; compound concentration 36 nM, raw replicate titration data): 0.2585 and 0.3171 and 0.1771 and 0.1787 | TR-FRET signal at compound concentration 79.2001 nM (CDK12–cyclin K and DDB1; compound concentration 79.2001 nM, raw replicate titration data): 0.3449 and 0.4117 and 0.2284 and 0.2341 | TR-FRET signal at compound concentration 158.4 nM (CDK12–cyclin K and DDB1; compound concentration 158.4 nM, raw replicate titration data): 0.4712 and 0.5868 and 0.3097 and 0.3219 | TR-FRET signal at compound concentration 309.6 nM (CDK12–cyclin K and DDB1; compound concentration 309.6 nM, raw replicate titration data): 0.6548 and 0.8142 and 0.4579 and 0.474 | TR-FRET signal at compound concentration 626.401 nM (CDK12–cyclin K and DDB1; compound concentration 626.401 nM, raw replicate titration data): 0.9256 and 1.1545 and 0.6903 and 0.7002 | TR-FRET signal at compound concentration 1252.8 nM (CDK12–cyclin K and DDB1; compound concentration 1252.8 nM, raw replicate titration data): 1.214 and 1.445 and 0.9334 and 0.9779 | TR-FRET signal at compound concentration 2448 nM (CDK12–cyclin K and DDB1; compound concentration 2448 nM, raw replicate titration data): 1.442 and 1.672 and 1.232 and 1.263 | TR-FRET signal at compound concentration 9936.01 nM (CDK12–cyclin K and DDB1; compound concentration 9936.01 nM, raw replicate titration data): 1.602 and 1.881 and 1.44 and 1.453 | TR-FRET signal at compound concentration 20016 nM (CDK12–cyclin K and DDB1; compound concentration 20016 nM, raw replicate titration data): 1.655 and 1.896 and 1.497 and 1.485 | EC50 (CDK12–cyclin K and DDB1; [3]): 704 ± 108 nM | EC50 (CDK12–cyclin K and DDB1; [4]): 704 nM | DC50 [1, 5]: > 10000 nM
SMILES: CC[C@H](CO)Nc1nc(Nc2ccc(-c3ccccn3)cc2)c2ncn(C(C)C)c2n1 [DRF053, reference compound]
EC50 (HEK293T cells; [6]): 1310 nM | Toxicity rescue (HEK293T cells; Supplementary Table 2): 387%

EC50 (CDK12–cyclin K and DDB1; [2]): 603 nM | TR-FRET signal at compound concentration (CDK12–cyclin K and DDB1; compound concentration 4.68 nM): 0.2091 and 0.2292 | TR-FRET signal at compound concentration (CDK12–cyclin K and DDB1; compound concentration 21.6 nM): 0.229 and 0.2555 | TR-FRET signal at compound concentration (CDK12–cyclin K and DDB1; compound concentration 36 nM): 0.2532 and 0.2765 | TR-FRET signal at compound concentration (CDK12–cyclin K and DDB1; [7]): 0.311 and 0.3352 | TR-FRET signal at compound concentration (CDK12–cyclin K and DDB1; [8]): 0.3881 and 0.4084 | TR-FRET signal at compound concentration (CDK12–cyclin K and DDB1; [9]): 0.5012 and 0.4942 | TR-FRET signal at compound concentration (CDK12–cyclin K and DDB1; [10]): 0.6373 and 0.6895 | TR-FRET signal at compound concentration (CDK12–cyclin K and DDB1; [11]): 0.7887 and 0.8649 | TR-FRET signal at compound concentration (CDK12–cyclin K and DDB1; compound concentration 2448 nM): 0.8803 and 0.974 | TR-FRET signal at compound concentration (CDK12–cyclin K and DDB1; [12]): 1.0289 and 1.143 | TR-FRET signal at compound concentration (CDK12–cyclin K and DDB1; [13]): 1.011 and 1.0565 | EC50 (CDK12–cyclin K and DDB1; [3]): 603 ± 62 nM | EC50 (CDK12–cyclin K and DDB1; [4]): 603 nM | DC50 [1, 5]: > 10000 nM
SMILES: CC[C@H](CO)Nc1nc(NCCCc2ccco2)c2ncn(C(C)C)c2n1 [DS34]
EC50 (HEK293T cells; [6]): > 10000 nM | Toxicity rescue (HEK293T cells; Supplementary Table 2): 0%

TR-FRET signal, individual replicate (CDK12–cyclin K and DDB1; compound concentration 4.68 nM): 0.2097 and 0.2275 | TR-FRET signal, individual replicate (CDK12–cyclin K and DDB1; compound concentration 21.6 nM): 0.2087 and 0.2297 | TR-FRET signal, individual replicate (CDK12–cyclin K and DDB1; compound concentration 36 nM): 0.2089 and 0.2353 | TR-FRET signal, individual replicate (CDK12–cyclin K and DDB1; [7]): 0.2163 and 0.2368 | TR-FRET signal, individual replicate (CDK12–cyclin K and DDB1; [8]): 0.2165 and 0.2428 | TR-FRET signal, individual replicate (CDK12–cyclin K and DDB1; [9]): 0.2214 and 0.244 | TR-FRET signal, individual replicate (CDK12–cyclin K and DDB1; [10]): 0.2373 and 0.2728 | TR-FRET signal, individual replicate (CDK12–cyclin K and DDB1; [11]): 0.2487 and 0.3013 | TR-FRET signal, individual replicate (CDK12–cyclin K and DDB1; compound concentration 2448 nM): 0.2879 and 0.3168 | TR-FRET signal, individual replicate (CDK12–cyclin K and DDB1; [12]): 0.3262 and 0.358 | TR-FRET signal, individual replicate (CDK12–cyclin K and DDB1; [13]): 0.3249 and 0.3501 | DC50 [1, 5]: > 10000 nM
SMILES: CCCCN(CCCC)CCCNc1nc(N[C@H](CC)CO)nc2c1ncn2C(C)C [DS36]
EC50 (HEK293T cells; [6]): > 10000 nM | Toxicity rescue (HEK293T cells; Supplementary Table 2): 0%

TR-FRET signal (CDK12–cyclin K and DDB1; compound concentration 4.68 nM): 0.1556 and 0.1596 | TR-FRET signal (CDK12–cyclin K and DDB1; compound concentration 21.6 nM): 0.2553 and 0.252 | TR-FRET signal (CDK12–cyclin K and DDB1; compound concentration 36 nM): 0.4296 and 0.427 | TR-FRET signal (CDK12–cyclin K and DDB1; [7]): 0.6728 and 0.6901 | TR-FRET signal (CDK12–cyclin K and DDB1; [8]): 0.9753 and 0.9579 | TR-FRET signal (CDK12–cyclin K and DDB1; [9]): 1.242 and 1.248 | TR-FRET signal (CDK12–cyclin K and DDB1; [10]): 1.483 and 1.517 | TR-FRET signal (CDK12–cyclin K and DDB1; [11]): 1.637 and 1.718 | TR-FRET signal (CDK12–cyclin K and DDB1; compound concentration 2448 nM): 1.781 and 1.804 | TR-FRET signal (CDK12–cyclin K and DDB1; [12]): 1.87 and 1.831 | TR-FRET signal (CDK12–cyclin K and DDB1; [13]): 1.812 and 1.801 | EC50 (CDK12–cyclin K and DDB1; [3]): 169 ± 7 nM | EC50 (CDK12–cyclin K and DDB1; source data sheet correlations, read-out: TR-FRET EC50): 168 nM | DC50 ([1]; source data sheet correlations, read-out: DC50): 917 nM
SMILES: CC[C@H](CO)Nc1nc(NCc2ccc(OCCO)cc2)c2ncn(C(C)C)c2n1 [DS61]
EC50 (HEK293T cells; Supplementary Fig. 5, HEK293T, CellTiter Glo, 72h, read-out: Viability EC50, no MLN4924): 281 nM | EC50 (HEK293T cells; [6]): 283 nM | Toxicity rescue (HEK293T cells; Supplementary Table 2): 278%
